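Values below derive from 48-hour exposures of cells grown in 96-well plates, with endpoints linearly interpolated between the two concentrations bracketing the appropriate inhibition level. The concentration for 50% growth inhibition is given as GI50.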 Calls of active or inactive are those of the source. Rule as the data show it: active = GI50 up to about 1.1 µM and inactive = higher.
What was measured:
Experiment in all cases: NCI anticancer screen, dose series, 48 h
HCC 2998 = tested on: HCC 2998
SR = tested on: SR
HOP-62 = tested on: HOP-62
UO-31 = tested on: UO-31
MOLT-4 = tested on: MOLT-4
SW-620 = tested on: SW-620
NCI-H522 = tested on: NCI-H522
KM-20L2 = tested on: KM-20L2
SNB-75 = tested on: SNB-75
CCRF-CEM = tested on: CCRF-CEM
SF-539 = tested on: SF-539
A549 = tested on: A549
DLD-1 = tested on: DLD-1
COLO 205 = tested on: COLO 205
RXF 631 = tested on: RXF 631
KM12 = tested on: KM12
HOP-92 = tested on: HOP-92
OVCAR-8 = tested on: OVCAR-8
TK-10 = tested on: TK-10
SNB-78 = tested on: SNB-78
SN12C = tested on: SN12C
M14 = tested on: M14
DMS-273 = tested on: DMS-273
786-0 = tested on: 786-0
Malme-3M = tested on: Malme-3M
HCT-15 = tested on: HCT-15
ACHN = tested on: ACHN
SF-268 = tested on: SF-268
HL-60 = tested on: HL-60
SNB-19 = tested on: SNB-19
UACC-62 = tested on: UACC-62
A498 = tested on: A498
OVCAR-5 = tested on: OVCAR-5
SK-MEL-28 = tested on: SK-MEL-28
IGROV-1 = tested on: IGROV-1
NCI-H23 = tested on: NCI-H23
LXFL 529 = tested on: LXFL 529
SK-OV-3 = tested on: SK-OV-3
CAKI-1 = tested on: CAKI-1
SK-MEL-5 = tested on: SK-MEL-5
NCI-H226 = tested on: NCI-H226
HT-29 = tested on: HT-29
OVCAR-4 = tested on: OVCAR-4
SK-MEL-2 = tested on: SK-MEL-2
EKVX = tested on: EKVX
HOP-18 = tested on: HOP-18
HCT-116 = tested on: HCT-116
RXF 393 = tested on: RXF 393
RPMI-8226 = tested on: RPMI-8226
LOX IMVI = tested on: LOX IMVI
NCI-H460 = tested on: NCI-H460
UACC-257 = tested on: UACC-257
SF-295 = tested on: SF-295
K562 = tested on: K562
U-251 = tested on: U-251
XF498 = tested on: XF498
M19-MEL = tested on: M19-MEL
DMS-114 = tested on: DMS-114
OVCAR-3 = tested on: OVCAR-3

Measured: GI50

Cc1ccc2nc(NC(=O)/C(=N\NC(=S)NN)C3C(=O)NC(=S)NC3=O)sc2c1
inactive: HCC 2998 > 100 µM | SR > 100 µM | HOP-62 > 100 µM | UO-31 > 100 µM | MOLT-4 > 100 µM | SW-620 > 100 µM | NCI-H522 > 100 µM | KM-20L2 > 100 µM | SNB-75 > 100 µM | CCRF-CEM > 100 µM | SF-539 > 100 µM | A549 > 100 µM | DLD-1 > 100 µM | COLO 205 > 100 µM | RXF 631 > 100 µM | KM12 > 100 µM | HOP-92 > 100 µM | OVCAR-8 > 100 µM | TK-10 > 100 µM | SNB-78 > 100 µM | SN12C > 100 µM | M14 > 100 µM | DMS-273 > 100 µM | 786-0 > 100 µM | Malme-3M > 100 µM | ACHN > 100 µM | SF-268 > 100 µM | HL-60 > 100 µM | SNB-19 > 100 µM | UACC-62 > 100 µM | A498 > 100 µM | OVCAR-5 > 100 µM | SK-MEL-28 > 100 µM | IGROV-1 > 100 µM | NCI-H23 > 100 µM | LXFL 529 > 100 µM | SK-OV-3 > 100 µM | CAKI-1 > 100 µM | SK-MEL-5 > 100 µM | NCI-H226 > 100 µM | HT-29 > 100 µM | OVCAR-4 > 100 µM | SK-MEL-2 > 100 µM | EKVX > 100 µM | HOP-18 80 µM | HCT-116 > 100 µM | RXF 393 > 100 µM | RPMI-8226 > 100 µM | LOX IMVI > 100 µM | NCI-H460 > 100 µM | UACC-257 > 100 µM | SF-295 > 100 µM | K562 > 100 µM | U-251 > 100 µM | XF498 > 100 µM
> 100 µM: HCT-15

[O-][N+]1=C(c2ccccc2)COc2ccccc21
> 100 µM: HCT-15
inactive: HCC 2998 > 100 µM | SR 47.5 µM | HOP-62 > 100 µM | UO-31 > 100 µM | MOLT-4 > 100 µM | SW-620 > 100 µM | NCI-H522 > 100 µM | KM-20L2 > 100 µM | SNB-75 > 100 µM | CCRF-CEM 85.1 µM | SF-539 > 100 µM | A549 > 100 µM | DLD-1 > 100 µM | COLO 205 > 100 µM | M19-MEL > 100 µM | RXF 631 70.1 µM | KM12 > 100 µM | HOP-92 > 100 µM | OVCAR-8 > 100 µM | DMS-114 > 100 µM | TK-10 > 100 µM | SNB-78 > 100 µM | SN12C > 100 µM | M14 > 100 µM | OVCAR-3 > 100 µM | DMS-273 > 100 µM | 786-0 > 100 µM | Malme-3M > 100 µM | ACHN > 100 µM | SF-268 > 100 µM | HL-60 > 100 µM | SNB-19 > 100 µM | UACC-62 > 100 µM | A498 > 100 µM | OVCAR-5 > 100 µM | SK-MEL-28 > 100 µM | IGROV-1 > 100 µM | NCI-H23 > 100 µM | LXFL 529 > 100 µM | SK-OV-3 > 100 µM | CAKI-1 > 100 µM | SK-MEL-5 > 100 µM | NCI-H226 > 100 µM | HT-29 > 100 µM | OVCAR-4 > 100 µM | SK-MEL-2 > 100 µM | HOP-18 > 100 µM | HCT-116 > 100 µM | RXF 393 > 100 µM | RPMI-8226 67.5 µM | LOX IMVI 96.4 µM | NCI-H460 > 100 µM | UACC-257 > 100 µM | SF-295 > 100 µM | K562 > 100 µM | U-251 > 100 µM

Cc1ccc(S(=O)(=O)c2ccc(N)cc2)cc1
> 100 µM: HCT-15
inactive: HCC 2998 > 100 µM | HOP-62 > 100 µM | UO-31 > 100 µM | MOLT-4 > 100 µM | SW-620 > 100 µM | KM-20L2 > 100 µM | SNB-75 > 100 µM | CCRF-CEM > 100 µM | SF-539 > 100 µM | A549 > 100 µM | DLD-1 > 100 µM | M19-MEL > 100 µM | RXF 631 > 100 µM | KM12 47.6 µM | OVCAR-8 > 100 µM | TK-10 > 100 µM | SNB-78 > 100 µM | M14 > 100 µM | OVCAR-3 > 100 µM | DMS-273 > 100 µM | 786-0 > 100 µM | Malme-3M > 100 µM | ACHN > 100 µM | HL-60 > 100 µM | UACC-62 > 100 µM | A498 > 100 µM | OVCAR-5 > 100 µM | SK-MEL-28 > 100 µM | IGROV-1 > 100 µM | NCI-H23 > 100 µM | LXFL 529 > 100 µM | SK-OV-3 > 100 µM | CAKI-1 97.9 µM | SK-MEL-5 > 100 µM | NCI-H226 > 10 µM | HT-29 > 100 µM | OVCAR-4 > 100 µM | SK-MEL-2 > 100 µM | EKVX > 100 µM | HCT-116 > 100 µM | RXF 393 > 100 µM | RPMI-8226 > 100 µM | NCI-H460 > 100 µM | UACC-257 > 100 µM | SF-295 > 100 µM | K562 > 100 µM | U-251 > 100 µM | XF498 > 100 µM

C/C(CC(=O)Nc1ccc(Cl)cc1)=N\NC(N)=S
inactive: HCC 2998 30.9 µM | HOP-62 67.9 µM | MOLT-4 45.3 µM | SW-620 > 100 µM | NCI-H522 47.2 µM | KM-20L2 13.9 µM | SNB-75 > 100 µM | CCRF-CEM 30 µM | SF-539 34.2 µM | A549 26.5 µM | DLD-1 18.3 µM | COLO 205 23.3 µM | M19-MEL 66.5 µM | RXF 631 > 100 µM | KM12 21.4 µM | HOP-92 > 100 µM | OVCAR-8 > 100 µM | DMS-114 39.1 µM | TK-10 > 100 µM | SNB-78 > 100 µM | M14 6.47 µM | OVCAR-3 > 100 µM | DMS-273 8.09 µM | 786-0 > 100 µM | Malme-3M > 100 µM | ACHN 9.14 µM | SF-268 54 µM | HL-60 12.8 µM | UACC-62 4.95 µM | A498 > 100 µM | OVCAR-5 > 100 µM | SK-MEL-28 > 100 µM | IGROV-1 > 100 µM | NCI-H23 > 100 µM | LXFL 529 5.47 µM | SK-OV-3 > 100 µM | SK-MEL-5 26.1 µM | HT-29 > 100 µM | SK-MEL-2 > 100 µM | EKVX > 100 µM | HCT-116 71.4 µM | RXF 393 > 100 µM | RPMI-8226 61.8 µM | LOX IMVI 1.81 µM | NCI-H460 45.5 µM | UACC-257 21.9 µM | SF-295 29 µM | K562 5.43 µM | U-251 > 100 µM | XF498 > 100 µM

COc1ccc(C2C(C(=O)O)=C(COC(C)=O)Oc3cc4c(cc32)OCO4)c(OC)c1 (configuration not stated)
inactive: HOP-62 > 100 µM | UO-31 > 100 µM | MOLT-4 > 100 µM | SW-620 > 100 µM | KM-20L2 > 100 µM | SNB-75 > 100 µM | CCRF-CEM > 100 µM | SF-539 > 100 µM | A549 > 100 µM | DLD-1 > 100 µM | COLO 205 > 100 µM | M19-MEL > 100 µM | RXF 631 > 100 µM | HOP-92 90.6 µM | OVCAR-8 > 100 µM | DMS-114 > 100 µM | TK-10 > 100 µM | SNB-78 > 100 µM | SN12C > 100 µM | M14 > 100 µM | OVCAR-3 > 100 µM | DMS-273 > 100 µM | 786-0 > 100 µM | Malme-3M > 100 µM | ACHN > 100 µM | HL-60 > 100 µM | SNB-19 > 100 µM | UACC-62 > 100 µM | SK-MEL-28 > 100 µM | IGROV-1 > 100 µM | NCI-H23 > 100 µM | SK-OV-3 > 100 µM | CAKI-1 > 100 µM | SK-MEL-5 > 100 µM | HT-29 > 100 µM | OVCAR-4 > 100 µM | SK-MEL-2 > 100 µM | EKVX > 100 µM | HOP-18 > 100 µM | HCT-116 > 100 µM | RXF 393 > 100 µM | RPMI-8226 > 100 µM | LOX IMVI > 100 µM | NCI-H460 > 100 µM | UACC-257 > 100 µM | SF-295 > 100 µM | K562 > 100 µM | U-251 > 100 µM | XF498 > 100 µM
> 100 µM: HCT-15

From ChEMBL document CHEMBL1201862, “PubChem BioAssay data set” (2004)
